Assays:
Assay type in all cases: toxicity, cell-based
Fibroblast = test: Incucyte cell viability with human fibroblast; conditions: 10 µM, compound concentration 10 uM
HEK-293T = test: Incucyte cell viability with HEK293T; conditions: human, 10 µM, compound concentration 10 uM
U2OS = test: Incucyte cell viability with U2OS; conditions: human, 10 µM, compound concentration 10 uM
[1] = 0 h, replicate number 1, timepoint 0 hours
[2] = 6 h, replicate number 1, timepoint 6 hours
[3] = 12 h, replicate number 1, timepoint 12 hours
[4] = 18 h, replicate number 1, timepoint 18 hours
[5] = 18 h, replicate number 2, timepoint 18 hours
[6] = 24 h, replicate number 1, timepoint 24 hours
[7] = 24 h, replicate number 2, timepoint 24 hours
[8] = 12 h, replicate number 2, timepoint 12 hours
[9] = 6 h, replicate number 2, timepoint 6 hours
[10] = 0 h, replicate number 2, timepoint 0 hours
Also: filed as whole numbers so only -1 and 0 and 1 occur.

SMILES | Growth Rate (Fibroblast; [1]) | Growth Rate (Fibroblast; [2]) | Growth Rate (Fibroblast; [3]) | Growth Rate (Fibroblast; [4]) | Growth Rate (Fibroblast; [6]) | Growth Rate (HEK-293T; [1]) | Growth Rate (HEK-293T; [2]) | Growth Rate (HEK-293T; [3]) | Growth Rate (HEK-293T; [8]) | Growth Rate (HEK-293T; [4]) | Growth Rate (HEK-293T; [6]) | Growth Rate (HEK-293T; [7]) | Growth Rate (U2OS; [2]) | Growth Rate (U2OS; [9]) | Growth Rate (U2OS; [3]) | Growth Rate (U2OS; [4]) | Growth Rate (U2OS; [6]) | Growth Rate (U2OS; [7]) | Growth Rate (Fibroblast; [9]) | Growth Rate (U2OS; [1]) | further results
Cc1csc(NC(=O)c2cc(F)cc(Oc3cncnc3)c2)n1 | 0 | 0 | 0 | 1 | 1 | 0 | 1 | 0 | 1 | 1 | 1 | 0 | 1 | 0 | 0 | 0 | 0 | 1 |  |  | Growth Rate (Fibroblast; [5]): 0; Growth Rate (Fibroblast; [7]): 0; Growth Rate (HEK-293T; [5]): 0; Growth Rate (U2OS; [5]): 1
CC(C)Oc1ccc(-c2c[nH]cc2CN(C)CCN)cc1 | 0 |  |  | 1 | 1 | 0 |  |  |  |  |  | 1 | 0 |  | 1 | 0 | 0 | 1 | 0 | 0 | Growth Rate (Fibroblast; [8]): 0; Growth Rate (Fibroblast; [5]): 0; Growth Rate (Fibroblast; [7]): 0; Growth Rate (HEK-293T; [10]): 1; Growth Rate (U2OS; [5]): 1
C[C@H](N)COC(=O)[C@@H](CCCCN)NC(=O)Cc1c(-c2ccc3ccccc3c2)[nH]c2c1ccc1ccccc12 | 0 | 0 | 1 | 0 | 0 | 0 | 1 | 1 | 0 | 1 | 1 | 0 |  | 0 | 1 | 1 | 1 |  |  |  | Growth Rate (Fibroblast; [8]): 0; Growth Rate (HEK-293T; [9]): 0; Growth Rate (HEK-293T; [5]): 0; Growth Rate (U2OS; [10]): 0
O=C(O)CC/C=C\C[C@@H]1CO[C@H](c2ccccc2Cl)O[C@@H]1c1ccccc1O | 0 | 1 | 1 | 1 | 1 | 0 | 1 | 1 | 0 | 1 | 1 |  |  | 0 | 1 | 0 | 1 | 0 | 0 | 0 | Growth Rate (HEK-293T; [9]): 0; Growth Rate (U2OS; [8]): 0
COc1ccc(S(=O)(=O)N2c3ccc(Cl)cc3[C@](O)(c3ccccc3Cl)[C@@H]2C(=O)N2CCC[C@H]2C(N)=O)cc1OC [RELCOVAPTAN] | 0 | 0 | 0 | 0 | 0 | 1 | 0 | 0 |  | 0 | 0 |  | 1 | 0 | 0 | 0 | 0 | 1 |  |  | Growth Rate (Fibroblast; [10]): 1; Growth Rate (HEK-293T; [10]): 0
O=C(O)Cn1c(C(=O)Nc2nc(-c3ccccc3Cl)cs2)cc2ccccc21 | 0 | 1 | 0 | 1 | 0 | 0 | 1 | 1 | 0 | 1 | 1 | 0 |  | 0 | 1 | 0 | 1 |  | 0 |  | Growth Rate (Fibroblast; [10]): 1; Growth Rate (Fibroblast; [5]): 0; Growth Rate (HEK-293T; [9]): 0; Growth Rate (HEK-293T; [5]): 0; Growth Rate (U2OS; [10]): 0
CCNC(=O)c1cc2c(N3CCOC[C@@H]3C)ccnc2n1C | 0 | 1 | 1 | 1 | 1 | 1 | 0 | 0 |  | 1 | 0 | 1 |  | 0 | 0 | 0 | 0 | 1 | 0 | 0 | Growth Rate (Fibroblast; [8]): 0; Growth Rate (Fibroblast; [5]): 0; Growth Rate (HEK-293T; [10]): 0; Growth Rate (U2OS; [10]): 1; Growth Rate (U2OS; [8]): 1; Growth Rate (U2OS; [5]): 1
CC(C)(O)c1ccccc1CC[C@@H](SCC1(CC(=O)[O-])CC1)c1cccc(/C=C/c2ccc3ccc(Cl)cc3n2)c1.[Na+] [MONTELUKAST SODIUM] | 0 |  | 1 | 1 | 1 | 0 | 1 | 0 |  | 1 | 1 | 0 |  | 0 | 1 | 1 | 1 |  | 0 | 0 | Growth Rate (HEK-293T; [9]): 0; Growth Rate (HEK-293T; [5]): 0
O=C1CCc2cc(Nc3cc(OC4CCOCC4)c([N+](=O)[O-])cc3Cl)ccc2N1 |  | 0 | 0 | 0 | 0 | 0 |  |  | 1 |  |  | 1 | 0 | 1 | 0 | 0 | 0 | 1 |  | 0 | Growth Rate (Fibroblast; [10]): 0; Growth Rate (Fibroblast; [8]): 1; Growth Rate (HEK-293T; [10]): 1; Growth Rate (HEK-293T; [9]): 1; Growth Rate (U2OS; [8]): 1
CN(C)C(=O)/C(C#N)=C/c1ccc(-c2nc3cnc4c(ccn4C)c3n2C2CCCCC2)o1 |  | 0 | 0 | 0 | 0 |  | 0 | 0 |  | 0 | 0 |  | 0 | 1 | 0 | 0 | 1 |  | 1 | 0 | Growth Rate (U2OS; [8]): 1; Growth Rate (U2OS; [5]): 1
CCCOc1ccc([C@H]2[C@H](C(=O)O)[C@@H](c3ccc4c(c3)OCO4)CN2CC(=O)Nc2c(CC)cccc2CC)cc1 [A-192621] | 0 | 1 | 1 | 1 | 1 | 0 | 0 | 0 |  | 0 | 0 |  | 0 |  | 0 | 0 | 0 | 1 | 0 |  | Growth Rate (Fibroblast; [10]): 1; Growth Rate (HEK-293T; [5]): 1; Growth Rate (U2OS; [5]): 1
Cc1cc([C@@H](C)Nc2ccccc2C(=O)O)c2nc(N3CCOCC3)cc(=O)n2c1 [AZD-6482] |  | 0 | 0 | 0 | 1 |  | 0 | 0 | 1 | 0 | 0 | 1 | 0 | 1 | 0 | 0 | 0 |  |  | 0 | Growth Rate (Fibroblast; [10]): 0; Growth Rate (Fibroblast; [5]): 1; Growth Rate (U2OS; [8]): 1; Growth Rate (U2OS; [5]): 1
